Assay: Two-week non-GLP toxicology in mice (clinical signs, body weight, body weight gain, food consumption, hematology, clinical chemistry, organ weights, histopathology)
[1] = female mice, 50 mg/kg:BID oral, 2 weeks, mean
[2] = male mice, 25 mg/kg/BID oral, 2 weeks, mean
[3] = male mice, 50 mg/kg/BID oral, 2 weeks, mean
[4] = oral, twice daily, 25 and 50 mg/kg, 2 weeks, mice

Protocol: Each group contained 6 mice. The animals were analyzed throughout the study, and blood and tissues were analyzed at the end of the study.

SMILES: COC(=O)C1=CNC=C(C(=O)OC)C1c1ccc(F)c(C(F)(F)F)c1 [Compound 103, Dimethyl 4-(4-fluoro-3-(trifluoromethyl)phenyl)-1,4-dihydropyridine-3,5-dicarboxylate]
- Body weight gain (%) (female mice, 50 mg/kg/BID oral, treatment day 1 to 14, mean): 5.87%
- Organ weights relative to body weight (%), Adrenals [1]: 0.035%
- Organ weights relative to body weight (%), Brain [1]: 2.175%
- Organ weights relative to body weight (%), Heart [1]: 0.532%
- Organ weights relative to body weight (%), Kidneys [1]: 1.375%
- Organ weights relative to body weight (%), Liver [1]: 7.356%
- Organ weights relative to body weight (%), Ovaries [1]: 0.066%
- Organ weights relative to body weight (%), Spleen [1]: 0.490%
- Organ weights relative to body weight (%), Thymus [1]: 0.220%
- Organ weights relative to body weight (%), U [1]: 0.277%
- clinical chemistry assessment (male and female mice, 25 and 50 mg/kg BID, 2 weeks): no significant toxicological change
- ALB [2]: 2.66
- ALP [2]: 207.96
- ALT [2]: 42.36
- AST [2]: 79.38
- BUN [2]: 19.73
- Basophils [2]: 0.00
- CREA [2]: 0.14
- Eosinophils [2]: 0.67
- GLU [2]: 157.88 mg/dL
- HCT [2]: 31.43%
- HGB [2]: 15.37 g/dL
- LDLC [2]: 10.02 mg/dL
- Lymphocytes [2]: 82.33
- MCH [2]: 23.27 pg
- MCHC [2]: 48.87 g/dL
- MCV [2]: 47.70 fL
- Monosytes [2]: 1.33
- Neutrophils [2]: 15.67
- Organ weights relative to body weight (%), Adrenals [2]: 0.024%
- Organ weights relative to body weight (%), Brain [2]: 2.065%
- Organ weights relative to body weight (%), Epididy [2]: 0.333%
- Organ weights relative to body weight (%), Heart [2]: 0.500%
- Organ weights relative to body weight (%), Kidneys [2]: 1.490%
- Organ weights relative to body weight (%), Liver [2]: 7.093%
- Organ weights relative to body weight (%), Spleen [2]: 0.351%
- Organ weights relative to body weight (%), Testes [2]: 0.582%
- Organ weights relative to body weight (%), Thy [2]: 0.136%
- PLT [2]: 591.33 10^3/μl
- RBC [2]: 6.59
- Reticuloxyte Count [2]: 2.90
- TBIL [2]: 0.09*↓ mg/dL
- TGL [2]: 73.46 mg/dL
- TP [2]: 4.13*↑ g/dL
- Urea [2]: 42.29 mg/dL
- WBC [2]: 3.70*↓ 10^3/μl
- Food consumption, Average Feed Intake/Animal (male mice, 25 mg/kg/BID oral, treatment day 1 to 4): 9.9 g/animal
- Body weight gain (%) (male mice, 25 mg/kg/BID oral, treatment day 1 to 4, mean): 3.45%
- Food consumption, Average Feed Intake/Animal (male mice, 25 mg/kg/BID oral, treatment day 1 to 8): 14.8 g/animal
- Body weight gain (%) (male mice, 25 mg/kg/BID oral, treatment day 1 to 8, mean): 5.68%
- Food consumption, Average Feed Intake/Animal (male mice, 25 mg/kg/BID oral, treatment day 1 to 11): 9.5 g/animal
- Body weight gain (%) (male mice, 25 mg/kg/BID oral, treatment day 1 to 11, mean): 5.86%
- Food consumption, Average Feed Intake/Animal (male mice, 25 mg/kg/BID oral, treatment day 1 to 14): 10.4 g/animal
- Body weight gain (%) (male mice, 25 mg/kg/BID oral, treatment day 1 to 14, mean): 7.91%
- ALB [3]: 2.43
- ALP [3]: 180.63
- ALT [3]: 59.72
- AST [3]: 88.76
- BUN [3]: 22.97
- Basophils [3]: 0.00
- CREA [3]: 0.12*↓
- Eosinophils [3]: 0.00
- GLU [3]: 152.77 mg/dL
- HCT [3]: 30.70%
- HGB [3]: 13.73 g/dL
- LDLC [3]: 9.84 mg/dL
- Lymphocytes [3]: 78.00
- MCH [3]: 21.70 pg
- MCHC [3]: 44.77 g/dL
- MCV [3]: 48.40*↑ fL
- Monosytes [3]: 2.00
- Neutrophils [3]: 20.00
- Organ weights relative to body weight (%), Adrenals [3]: 0.030%
- Organ weights relative to body weight (%), Brain [3]: 2.017%
- Organ weights relative to body weight (%), Epididy [3]: 0.298%
- Organ weights relative to body weight (%), Heart [3]: 0.541%
- Organ weights relative to body weight (%), Kidneys [3]: 1.467%
- Organ weights relative to body weight (%), Liver [3]: 7.014%
- Organ weights relative to body weight (%), Spleen [3]: 0.461%
- Organ weights relative to body weight (%), Testes [3]: 0.773%
- Organ weights relative to body weight (%), Thy [3]: 0.116%
- PLT [3]: 661.00 10^3/μl
- RBC [3]: 6.34
- Reticuloxyte Count [3]: 2.67
- TBIL [3]: 0.08*↓ mg/dL
- TGL [3]: 84.42 mg/dL
- TP [3]: 4.19*↑ g/dL
- Urea [3]: 47.30 mg/dL
- WBC [3]: 2.27*↓ 10^3/μl
- Food consumption, Average Feed Intake/Animal (male mice, 50 mg/kg/BID oral, treatment day 1 to 4): 8.7 g/animal
- Body weight gain (%) (male mice, 50 mg/kg/BID oral, treatment day 1 to 4, mean): −0.49*1%
- Food consumption, Average Feed Intake/Animal (male mice, 50 mg/kg/BID oral, treatment day 1 to 8): 14.4 g/animal
- Body weight gain (%) (male mice, 50 mg/kg/BID oral, treatment day 1 to 8, mean): 3.28%
- Food consumption, Average Feed Intake/Animal (male mice, 50 mg/kg/BID oral, treatment day 1 to 11): 9.4 g/animal
- Body weight gain (%) (male mice, 50 mg/kg/BID oral, treatment day 1 to 11, mean): 3.60%
- Food consumption, Average Feed Intake/Animal (male mice, 50 mg/kg/BID oral, treatment day 1 to 14): 11.0 g/animal
- Body weight gain (%) (male mice, 50 mg/kg/BID oral, treatment day 1 to 14, mean): 6.21%
- body weight and body weight gain [4]: did not change
- clinical signs [4]: No abnormal clinical signs were detected
- survival [4]: all animals survived to study termination
- tolerable dose (twice daily for 14 consecutive days, oral, C57BL/6 mice): > 50 mg/kg/BID
